Experimental data published in US9365522B2, “Pyrazole amide derivative” (AMGEN INC., priority 2015, dated 2016).

Target: T1, ligand binding domain of human ROR gamma (Homo sapiens, UniProt P51449)
T1 construct: NM_001001523; expressed in transfected cells; host or cells: HEK293T
T1 sequence (P51449 247-497 isoform P51449-2): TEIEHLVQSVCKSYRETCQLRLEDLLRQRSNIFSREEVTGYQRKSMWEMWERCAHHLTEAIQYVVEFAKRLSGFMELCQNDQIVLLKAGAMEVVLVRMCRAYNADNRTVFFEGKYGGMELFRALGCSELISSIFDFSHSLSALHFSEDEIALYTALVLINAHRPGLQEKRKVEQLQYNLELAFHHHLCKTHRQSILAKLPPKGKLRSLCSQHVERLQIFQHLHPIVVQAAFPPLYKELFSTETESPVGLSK
Test: ROR gamma reporter gene assay (GAL4-RORγ LBD luciferase, Dual-Glo)
Format: cell-based
Settings: HEK293T cells transfected with pM-ROR gamma, 8 concentrations 3.5 nM to 10.5 μM, 24 h incubation; read-out: result (pIC50, inhibition of RORγ transcriptional activity) (converted)
Summary of the method: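 Inhibition of RORγ-driven transcription was measured in HEK293T cells expressing a GAL4 fusion of the human RORγ LBD (aa 247-497), with renilla luciferase as internal control. Cells in 10% charcoal-stripped serum received compound (3.5 nM–10.5 μM) for 24 h.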

| Structure (SMILES) | IC50 [pM] |
| --- | --- |
| CC1(C)CC[C@H](N(CC(=O)c2c(Cl)cncc2Cl)C(=O)c2cnn([C@H]3CC[C@H](C(=O)O)CC3)c2C(F)(F)F)C1 [Example 183, trans-4-(4-((2-(3,5-dichloropyridin-4-yl)-2-oxoethyl)-((1S)-3,3-dimethylcyclopentyl)carbamoyl)-5-(trifluoromethyl)pyrazol-1-yl)cyclohexane-1-carboxylic acid] | 174000 |
| CC1(C#N)CCC(N(CC(=O)c2c(Cl)cncc2Cl)C(=O)c2cnn([C@H]3CC[C@H](C(=O)O)CC3)c2C(F)(F)F)C1 (stereo partly drawn) [Example 210, trans-4-(4-((3-cyano-3-methylcyclopentyl)-(2-(3,5-dichloropyridin-4-yl)-2-oxoethyl)carbamoyl)-5-(trifluoromethyl)pyrazol-1-yl)cyclohexane-1-carboxylic acid] | 1.02e+06 |
| O=C(CN(Cc1ccc(F)cc1)C(=O)c1cnn([C@H]2CC[C@H](C(=O)O)C2)c1C(F)(F)F)c1c(Cl)cncc1Cl [Example 92, (1S,3S)-3-(4-((2-(3,5-dichloropyridin-4-yl)-2-oxoethyl)-((4-fluorophenyl)methyl)carbamoyl)-5-(trifluoromethyl)pyrazol-1-yl)cyclopentane-1-carboxylic acid] | 155000 |
| O=C(CN(Cc1cc(F)ccc1F)C(=O)c1cnn([C@H]2CC[C@H](C(=O)O)CC2)c1C(F)(F)F)c1c(Cl)cncc1Cl [Example 45, trans-4-(4-((2-(3,5-dichloropyridin-4-yl)-2-oxoethyl)(2,5-difluorobenzyl)carbamoyl)-5-(trifluorornethyl)-1H-pyrazol-1-yl)cyclohexanecarboxylic acid] | 58900 |
| CC1(C)[C@@H]2C[C@H](N(C[C@H](O)c3ccccc3Cl)C(=O)c3cnn([C@H]4CC[C@](C)(C(=O)O)CC4)c3C(F)(F)F)C[C@@H]21 [Example 368, trans-4-(4-((2-(2-chlorophenyl)-2-hydroxyethyl)((1R,3r,5S)-6,6-dimethylbicyclo[3.1.0]hexan-3-yl)carbamoyl)-5-(trifluoromethyl)-1H-pyrazol-1-yl)-1-methylcyclohexanecarboxylic acid] | 191000 |
| CC(=O)N1CC(N(CC(=O)c2c(Cl)cncc2Cl)C(=O)c2cnn([C@H]3CC[C@H](C(=O)O)CC3)c2C(F)(F)F)C1 [Example 172, trans-4-(4-((1-acetylazetidin-3-yl)-(2-(3,5-dichloropyridin-4-yl)-2-oxoethyl)carbamoyl)-5-(trifluoromethyl)pyrazol-1-yl)cyclohexane-1-carboxylic acid] | > 1e+07 |
| Cc1cncc(Cl)c1C(=O)CN(C(=O)c1cnn([C@H]2CC[C@](C)(C(=O)O)CC2)c1C(F)(F)F)[C@H]1C[C@@H]2[C@H](C1)C2(C)C [Example 387, trans-4-(4-((2-(3-chloro-5-methylpyridin-4-yl)-2-oxoethyl)((1R,3r,5S)-6,6-dimethylbicyclo[3.1.0]hexan-3-yl)carbamoyl)-5-{trifluoromethyl)-1H-pyrazol-1-yl)-1-methylcyclohexanecarboxylic acid] | 69200 |
| CC(C)=CCN(CC(=O)c1c(Cl)cncc1Cl)C(=O)c1cnn([C@H]2CC[C@](C)(C(=O)O)CC2)c1C(F)(F)F [Example 314, trans-4-(4-((2-(3,5-dichloropyridin-4-yl)-2-oxoethyl)-(3-methylbut-2-enyl)carbamoyl)-5-(trifluoromethyl)pyrazol-1-yl)-1-methylcyclohexane-1-carboxylic acid] | 41700 |
| C[C@]1(C(=O)O)CC[C@H](n2ncc(C(=O)N(CC(=O)c3c(Cl)cncc3Cl)CC3(C(F)(F)F)CC3)c2Cl)CC1 [Example 388, trans-4-(5-chloro-4-((2-(3,5-dichloropyridin-4-yl)-2-oxoethyl)-((1-(trifluoromethyl)cyclopropyl)methyl)carbamoyl)pyrazol-1-yl)-1-methylcyclohexane-1-carboxylic acid] | 72400 |
| O=C(CN(Cc1ccccc1)C(=O)c1cnn([C@H]2CC[C@H](C(=O)O)CC2)c1C(F)(F)F)c1c(Cl)cncc1Cl [Example 40, trans-4-(4-(benzyl(2-(3,5-dichloropyridin-4-yl)-2-oxoethyl)carbamoyl)-5-(trifluoromethyl)-1H-pyrazol-1-yl)cyclohexanecarboxylic acid] | 56200 |
| O=C(CN(Cc1cc(F)cc(F)c1)C(=O)c1cnn([C@H]2CC[C@H](C(=O)O)CC2)c1C(F)(F)F)c1ccncc1 [Example 62, trans-4-(4-((3,5-difluorobenzyl)(2-oxo-2-(pyridin-4-yl)ethyl)carbamoyl)-5-(trifluoromethyl)-1H-pyrazol-1-yl)cyclohexanecarboxylic acid] | > 1e+07 |
| C[C@]1(C(=O)O)CC[C@H](n2ncc(C(=O)N(CC(=O)c3c(Cl)cncc3Cl)CC3(C(F)(F)F)CC3)c2C(F)(F)F)CC1 [Example 330] | 24000 |
| CC(C)(C)C#CCN(CC(=O)c1c(Cl)cc(F)cc1Cl)C(=O)c1cnn([C@H]2CC[C@](C)(C(=O)O)CC2)c1C(F)(F)F [Example 218, trans-4-(4-((2-(2,6-dichloro-4-fluorophenyl)-2-oxoethyl)-(4,4-dimethylpent-2-ynyl)carbamoyl)-5-(trifluoromethyl)pyrazol-1-yl)-1-methylcyclohexane-1-carboxylic acid] | 339000 |
| CCC(C)(C)CN(CC(=O)c1c(Cl)cc(Cl)cc1Cl)C(=O)c1cnn([C@H]2CC[C@](C)(C(=O)O)CC2)c1C(F)(F)F [Example 306, trans-4-(4-(2,2-dimethylbutyl-(2-oxo-2-(2,4,6-trichlorophenyl)ethyl)carbamoyl)-5-(trifluoromethyl)pyrazol-1-yl)-1-methylcyclohexane-1-carboxylic acid] | 8320 |
| CC1(C)[C@@H]2C[C@H](N(CC(O)c3ccccn3)C(=O)c3cnn([C@H]4CC[C@](C)(C(=O)O)CC4)c3C(F)(F)F)C[C@@H]21 (some centres unmarked) [Example 401] | 2.82e+06 |
| Cc1c(C(=O)N(CC(=O)c2c(Cl)cncc2Cl)Cc2cc(F)cc(F)c2)cnn1[C@H]1CC[C@H](C(=O)O)CC1 [Example 164, trans-4-(4-((2-(3,5-dichloropyridin-4-yl)-2-oxoethyl)-((3,5-difluorophenyl)methyl)carbamoyl)-5-methylpyrazol-1-yl)cyclohexane-1-carboxylic acid] | 1.17e+06 |
| O=C(CN(Cc1cc(F)cc(F)c1)C(=O)c1cnn([C@H]2CC[C@H](C(=O)O)CC2)c1C(F)(F)F)c1c(F)cncc1Cl [Example 50, trans-4-(4-((2-(3-chloro-5-fluoropyridin-4-yl)-2-oxoethyl)(3,5-difluorobenzyl)carbamoyl)-5-(trifluoromethyl)-1H-pyrazol-1-yl)cyclohexanecarboxylic acid] | 70800 |
| CC(C)(C)O[C@H]1C[C@H](N(CC(=O)c2c(Cl)cncc2Cl)C(=O)c2cnn([C@H]3CC[C@H](C(=O)O)CC3)c2C(F)(F)F)C1 [Example 176, trans-4-(4-((2-(3,5-dichloropyridin-4-yl)-2-oxoethyl)-(3-((2-methylpropan-2-yl)oxy)cyclobutyl)carbamoyl)-5-(trifluoromethyl)pyrazol-1-yl)cyclohexane-1-carboxylic acid] | 2.57e+06 |
| O=C(CN(Cc1ncc(Cl)s1)C(=O)c1cnn([C@H]2CC[C@H](C(=O)O)CC2)c1C(F)(F)F)c1c(Cl)cncc1Cl [Example 168, trans-4-(4-((5-chloro-1,3-thiazol-2-yl)methyl-(2-(3,5-dichloropyridin-4-yl)-2-oxoethyl)carbamoyl)-5-(trifluoromethyl)pyrazol-1-yl)cyclohexane-1-carboxylic acid] | 148000 |
| C[C@]1(C(=O)O)CC[C@H](n2ncc(C(=O)N(Cc3cc(F)cc(F)c3)C[C@@H](F)c3c(Cl)cccc3Cl)c2C(F)(F)F)CC1 [Example 139, trans-4-(4-(((2S)-2-(2,6-dichlorophenyl)-2-fluoroethyl)-((3,5-difluorophenyl)methyl)carbamoyl)-5-(trifluoromethyl)pyrazol-1-yl)-1-methylcyclohexane-1-carboxylic acid] | 17400 |
| O=C(CN(CC12CC3CC(CC(C3)C1)C2)C(=O)c1cnn([C@H]2CC[C@H](C(=O)O)CC2)c1C(F)(F)F)c1c(Cl)cncc1Cl [Example 123, trans-4-(4-(1-adamantylmethyl-(2-(3,5-dichloropyridin-4-yl)-2-oxoethyl)carbamoyl)-5-(trifluoromethyl)pyrazol-1-yl)cyclohexane-1-carboxylic acid] | 4900 |
| CC1(C)[C@@H]2C[C@H](N(C[C@@H](O)c3c(F)cncc3Cl)C(=O)c3cnn([C@H]4CC[C@](C)(C(=O)O)CC4)c3C(F)(F)F)C[C@@H]21 [Example 384, trans-4-(4-((2-(3-chloro-5-fluoropyridin-4-yl)-2-hydroxyethyl)((1R,3r,5S)-6,6-dimethylbicyclo[3.1.0]hexan-3-yl)carbamoyl)-5-(trifluoromethyl)-1H-pyrazol-1-yl)-1-methylcyclohexanecarboxylic acid] | 347000 |
| O=C(CN(Cc1cc(F)cc(F)c1)C(=O)c1cnn([C@H]2CC[C@H](C(=O)O)CC2)c1C(F)(F)F)c1c(F)cncc1F [Example 51, trans-4-(4-((3,5-difluorobenzyl)(2-(3,5-difluoropyridin-4-yl)-2-oxoethyl)carbamoyl)-5-(trifluoromethyl)-1H-pyrazol-1-yl)cyclohexanecarboxylic acid] | 4.07e+06 |
